According to ChEMBL document CHEMBL1146287, “New carbon-linked azole oxazolidinones with improved potency and pharmacokinetics” (Bioorg Med Chem Lett, 2007):
Values after ≈ are worked out from the molar mass of the structure shown.

Columns and labels:
Haemophilus influenzae = test: Antimicrobial activity against Haemophilus influenzae by broth dilution method; assay type: functional
Staphylococcus aureus = test: Antimicrobial activity against staphylococcus aureus by broth dilution method; assay type: functional
Streptococcus pneumoniae = test: Antimicrobial activity against streptococcus pneumoniae by broth dilution method; assay type: functional
[1] = molecular target: T1, Amine oxidase [flavin-containing] A (Homo sapiens, UniProt P21397); test: Inhibition human liver MAOA activity
T1 sequence (P21397 whole entry): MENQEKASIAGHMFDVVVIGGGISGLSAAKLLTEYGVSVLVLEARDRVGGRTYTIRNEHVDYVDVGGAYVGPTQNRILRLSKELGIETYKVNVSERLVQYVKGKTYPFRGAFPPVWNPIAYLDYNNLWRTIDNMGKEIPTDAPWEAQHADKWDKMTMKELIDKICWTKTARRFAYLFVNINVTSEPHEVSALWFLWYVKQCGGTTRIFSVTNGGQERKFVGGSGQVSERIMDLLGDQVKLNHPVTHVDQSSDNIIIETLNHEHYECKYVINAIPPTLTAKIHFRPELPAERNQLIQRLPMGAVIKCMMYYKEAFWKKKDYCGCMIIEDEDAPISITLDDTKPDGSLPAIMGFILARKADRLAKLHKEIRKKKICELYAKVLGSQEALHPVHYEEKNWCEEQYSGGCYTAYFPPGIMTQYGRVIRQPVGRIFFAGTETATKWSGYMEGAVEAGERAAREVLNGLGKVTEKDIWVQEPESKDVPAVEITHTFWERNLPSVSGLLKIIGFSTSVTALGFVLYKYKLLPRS

Mus musculus = test: Antibacterial activity against Streptococcus pneumoniae ARC548 infected C57BL/6 mouse lung at 25 mg/kg, po after 2 days relative to Linezolid; assay type: functional
[2] = Plasma clearance in rat; assay type: ADME, organism-based
[3] = Volume of distribution in rat; assay type: ADME, organism-based; conditions: in vivo, read-out: Vss
[4] = Half life in rat; assay type: ADME, organism-based; conditions: in vivo
[5] = Oral bioavailability in rat at 40 mg/kg; assay type: ADME, organism-based; conditions: in vivo

Row | SMILES | MIC (Haemophilus influenzae) [mg/L] | MIC (Staphylococcus aureus) [mg/L] | MIC (Streptococcus pneumoniae) [mg/L] | Ki [1] [µmol] | clearance [2] [L/h/kg] | Vd [3] [L/kg] | half-life [4] [h] | bioavailability [5] [%] | Lung antibacterial activity relative to linezolid (Mus musculus) [%]
1 | N#CCn1cc(-c2ccc(N3C[C@H](Cn4ccnn4)OC3=O)cc2F)nn1 | 32 (≈ 86.9 µM) | 4 (≈ 10.9 µM) | 2 (≈ 5.43 µM) |  |  |  |  |  | 
2 | O=C1O[C@@H](Cn2ccnn2)CN1c1ccc(-c2c[nH]nn2)c(F)c1 | > 64 | 64 (≈ 194 µM) | 32 (≈ 97.2 µM) |  |  |  |  |  | 
3 | Cn1cc(-c2ccc(N3C[C@H](Cn4ccnn4)OC3=O)cc2F)nn1 | > 64 | 32 (≈ 93.2 µM) | 16 (≈ 46.6 µM) |  |  |  |  |  | 
4 | CC(=O)NC[C@H]1CN(c2ccc(N3CCOCC3)c(F)c2)C(=O)O1 [LINEZOLID] | 8 (≈ 23.7 µM) |  |  | 20 |  |  |  |  | 75

Second part, led by results:

Row | MIC (Haemophilus influenzae) [mg/L] | MIC (Staphylococcus aureus) [mg/L] | MIC (Streptococcus pneumoniae) [mg/L] | Ki [1] [µmol] | clearance [2] [L/h/kg] | Vd [3] [L/kg] | half-life [4] [h] | bioavailability [5] [%] | SMILES | Lung antibacterial activity relative to linezolid (Mus musculus) [%]
5 | 16 (≈ 44.7 µM) | 0.5 (≈ 1.4 µM) | 0.25 (≈ 0.698 µM) | 0.42 |  |  |  |  | Cc1cc(-c2ccc(N3C[C@H](CNc4ccon4)OC3=O)cc2F)on1 | 33
6 | 8 (≈ 23.3 µM) | 0.5 (≈ 1.46 µM) | 0.25 (≈ 0.728 µM) | 2.9 | 0.3 | 0.6 | 1.7 | 82 | Cc1cc(-c2ccc(N3C[C@H](Cn4ccnn4)OC3=O)cc2F)on1 | 92
7 | 8 (≈ 25.1 µM) | 4 (≈ 12.5 µM) | 2 (≈ 6.26 µM) |  |  |  |  |  | CC(=O)NC[C@H]1CN(c2ccc(-c3c[nH]nn3)c(F)c2)C(=O)O1 | 
8 | 4 (≈ 11.2 µM) | 0.5 (≈ 1.4 µM) | 0.25 (≈ 0.7 µM) | 22.6 | 0.3 | 0.5 | 1.2 | 87 | Cc1cn(C[C@H]2CN(c3ccc(-c4cc(C)no4)c(F)c3)C(=O)O2)nn1 | 
9 | 4 (≈ 12 µM) | 0.5 (≈ 1.5 µM) | 0.25 (≈ 0.75 µM) | 0.95 |  |  |  |  | CC(=O)NC[C@H]1CN(c2ccc(-c3cc(C)no3)c(F)c2)C(=O)O1 | 22
10 | 16 (≈ 46.5 µM) | 8 (≈ 23.2 µM) | 16 (≈ 46.5 µM) |  |  |  |  |  | O=C1O[C@@H](CNc2ccon2)CN1c1ccc(-c2c[nH]nn2)c(F)c1 | 
